# “Also recorded” adds a separate entry of the source.
# How the values were obtained:
# [1] = test system: PC3/PSC27 transplanted tumors; test: PC3/PSC27 xenograft tumor volume in NOD/SCID mice; type: in vivo, mouse; details: for effect on tumor volume of chemotherapeutic drug combined with SAE: combination with SAE vs chemotherapeutic drug alone; for effect on tumors when combined with MIT: combination with MIT vs MIT alone
# Protocol: Every two weeks was a dosing cycle, and MIT (mitoxantrone) was intraperitoneally administered to the mice on the first day of the 3rd/5th/7th weeks. From the first day of the 5th week, the mice were intraperitoneally administered with SAE, […]. After the 8-week course of treatment, the mice were dissected for pathological identification and expression analysis.
# All experimental mouse experiments were carried out in strict accordance with the relevant regulations of the Institutional Animal Care and Use Committee (IACUC), Shanghai Institutes for Biological Sciences, Chinese Academy of Sciences. Immuno-deficient mice (NOD-SCID mice, ICR) (body weight about 25 g) aged 6-8 weeks were used for animal experiments related to the present patent. Stromal cells PSC27 and epithelial cells PC3 were mixed at a predetermined ratio of 1:4, and each graft contained 1.25×10^6 cells for tissue remodeling. The xenograft tumors were implanted into mice by subcutaneous transplantation, and the animals were euthanized 8 weeks after the end of the transplantation surgery. Tumor volume was calculated according to the following formula: V=(π/6)×((1+w)/2)3 (V, volume; l, length; w, width).
# (§1) In a preclinical treatment trial, subcutaneously transplanted mice were fed with a standard experimental diet, after 2 weeks chemotherapy drugs mitoxantrone (MIT, dose: 0.2 mg/kg) and/or SAE (500 μl, dose: 10 mg/kg) via intraperitoneal administration. The time points were: the former was administrated on the first day of the 3rd, 5th and 7th weeks, and the latter was administrated on the first day of the 5th and 7th weeks. A total of 3 cycles of MIT administration were carried out throughout the course of treatment, and each cycle lasted for 2 weeks. After the course of treatment, mouse tumors were harvested for volume measurement and histological analysis. Each mouse cumulatively received 0.6 mg/kg body weight of MIT and 30 mg/kg body weight of SAE. In order to cause systemic expression of SASP factors induced by chemotherapy, MIT was administered to mice through intravenous infusion according to the above steps and sequence, but the dose was reduced to 0.1 mg/kg body weight/each time (the cumulative dose of MIT received in the whole course of treatment was 0.3 mg/kg body weight) to reduce drug-related toxicity. The chemotherapy experiment ended at the end of the 8th week, and the mice were dissected immediately after sacrifice, and the xenograft tumors were collected and used for pathological system analysis.
# SASP factors = test: LCM and qRT-PCR of SASP factors in mouse lesions; type: in vivo; details: after MIT administration
# Protocol: The stromal cells and cancer cells were specifically separated by LCM technology, total RNA was prepared and used for SASP expression detection. ^, P>0.05; *, P<0.05; **, P<0.01.
# as §1, with “The chemotherapy experiment ended at the end of the 8th week, and the mice were dissected immediately after sacrifice, and the xenograft tumors were collected and used for pathological system analysis.” left out
# [2] = test system: senescent cells in tumor tissue; test: SA-β-Gal staining of tumor tissues of PC3/PSC27 tumor-bearing mice; type: in vivo, mouse; details: MIT alone
# Protocol: Representative pictures after SA-β-Gal staining. Scale bar, 100 μm.
# as §1
# PC3/PSC27 tumors = test: DNA damage and apoptosis in tumors of treated mice; type: in vivo, mouse; details: single agent compared with placebo, 7 days after first SAE administration
# Excerpt: To investigate mechanisms directly supporting this senescence-associated pattern with expression and reversal of SASP in MIT-administered mice, the inventors dissected tumors in animals treated with both drugs 7 days after the first SAE administration, and the time point of 7 days after administration was selected mainly because drug-resistant clones had not yet formed in cancer cells in the lesion at this time. […] As supporting evidence, when SAE was applied during treatment, caspase 3 cleavage activity was increased, which was a typical hallmark of apoptosis (FIG. 29).
# PSC27 [3] = test: Caspase 3/7 apoptosis detection in senescent PSC27 cells (IncuCyte); type: cell-based, human; details: 20 μM QVD-OPh, 200 μM SAE
# Protocol: PSC27 cells gradually entered the senescent stage after being treated with BLEO for 12 hours under culture conditions. 200 μM SAE was added to the medium of senescent cells starting from day 7, NucLight Rapid Red reagent was used to label the cells and caspase 3/7 reagent (IncuCyte) was used for apoptosis detection. Caspase 3/7 activity was detected every 4 hours (n=3).
# Statistical differences are obtained by two-way ANOVA (Turkey'test).
# PSC27 cells were plated in a 96-well dish, and the cells were induced to senescence under 50 μg/ml of BLEO treatment. SAE and ABT263 were added at concentrations of 200 μM and 1.25 μM, respectively. Cell culture medium was supplemented with Incucyte Nuclight fast Red Reagent (Essen Bioscience) and Incucyte C-3/7 Apoptosis Reagent (Essen Bioscience). Representative field of view was selected to take pictures.
# PSC27 [4] = test: SA-β-Gal staining of PSC27 cells (bleomycin-induced senescence, increasing SAE concentration); type: cell-based, human; details: PSC27 treated with bleomycin 50 μg/ml, vs control cells
# Protocol: The P value of positive proportion of cells in these experimental groups for SAE at the concentrations of 100 μM, 200 μM, 400 μM, 800 μM, 1600 μM, 2000 μM and 3000 μM are statistically significant compared with the data at 0 μM.
# (§2) To cause cell damage, 50 μg/mL bleomycin (bleomycin, BLEO) was added to the culture medium when PSC27 cells grew to 80% (abbreviated as PSC27-CTRL). After 12 hours of drug treatment, the cells were simply washed 3 times with PBS, left in the culture medium for 7-10 days, and then the subsequent experiments were performed.
# Senescence-associated B-galactosidase (SA-β-Gal) staining was performed following a previously reported procedure (Debacq-Chainiaux, et. al., 2009). Briefly, cells in culture dishes were washed with PBS and fixed at room temperature. Cells were fixed in 2% formaldehyde and 0.2% glutaraldehyde for 3 minutes. SA-β-Gal was used for staining with freshly prepared staining solution overnight at 37° C. Images were taken on the next day and the percentage of positive cells per unit area was calculated.
# PSC27 [5] = test: BrdU and γH2AX immunofluorescence staining of PSC27 cells after bleomycin; type: cell-based, human; details: PSC27 treated with bleomycin
# Protocol: as §2
# For immunofluorescent staining, target cells were pre-seeded on a coverslip for at least 24 h after culture in dishes. After a brief wash, the cells were fixed with 4% paraformaldehyde in PBS for 8 min and blocked with 5% normal goat serum (NGS, Thermo Fisher) for 30 min. Mouse monoclonal antibody-anti-phospho-Histone H2A.X (Ser139) (clone JBW301, Millipore) and mouse monoclonal antibody-anti-BrdU (Cat #347580, BD Biosciences), and secondary antibody Alexa Fluor®488 (or 594)-conjugated F (ab′) 2 were sequentially added to the slides coated with the fixed cells. Nuclei were counterstained with 2 μg/ml of 4′, 6-diamidino-2-phenylindole (DAPI). The most representative image was selected from the three observation fields for data analysis and result display. FV1000 laser scanning confocal microscope (Olympus) was used to acquire confocal fluorescent images of cells.
compound,measurement,setting,value
"CC(=O)O[C@@]12CO[C@@H]1C[C@H](O)[C@@]1(C)C(=O)[C@H](O)C3=C(C)[C@@H](OC(=O)[C@H](O)[C@@H](NC(=O)OC(C)(C)C)c4ccccc4)C[C@@](O)([C@@H](OC(=O)c4ccccc4)[C@H]21)C3(C)C [DOC, docetaxel]",effect on tumor volume of chemotherapeutic drug combined with SAE,[1],no further tumor shrinkage
same,tumor volume when chemotherapeutic drug used alone,[1],reduce the tumor volume
"COc1cccc2c1C(=O)c1c(O)c3c(c(O)c1C2=O)C[C@@](O)(C(=O)CO)C[C@@H]3O[C@H]1C[C@H](N)[C@H](O)[C@H](C)O1 [DOX, doxorubicin]",effect on tumor volume of chemotherapeutic drug combined with SAE,[1],roughly repeat the significant effect
"O=C1c2c(O)ccc(O)c2C(=O)c2c(NCCNCCO)ccc(NCCNCCO)c21 [MIT, mitoxantrone]",expression of SASP factors in lesions (mainly stromal cells),SASP factors,significantly increased; also recorded: significantly elevated expression
same,senescent cells in the tumor tissue after MIT administration,[2],induced the appearance of a large number of senescent cells
same,reduction in tumor size compared to placebo-treated group,"[1]; single agent, end of 8 weeks",44.1%
same,degree of DNA damage and apoptosis,PC3/PSC27 tumors,significant increase
"CC(C)[C@H](NC(=O)c1ccc2ccccc2n1)C(=O)N[C@@H](CC(=O)O)C(=O)COc1c(F)cccc1F [QVD, reference compound]",effect of pan-caspase inhibitor on killing of senescent cells by SAE,PSC27 [3],could prevent the killing of senescent cells by SAE
"O=C(/C=C/c1ccc(O/C(=C\c2ccc(O)c(O)c2)C(=O)O)c(O)c1)OC(Cc1ccc(O)c(O)c1)C(=O)O (stereo not shown) [SAI, salvianolic acid I]",effect on tumors when combined with MIT,[1],no significant effects
"CC[C@]1(O)C[C@H]2CN(CCc3c([nH]c4ccccc34)[C@@](C(=O)OC)(c3cc4c(cc3OC)N(C=O)[C@H]3[C@@](O)(C(=O)OC)[C@H](OC(C)=O)[C@]5(CC)C=CCN6CC[C@]43[C@@H]65)C2)C1 [VIN, vincristine]",effect on tumor volume of chemotherapeutic drug combined with SAE,[1],no further tumor shrinkage
same,tumor volume when chemotherapeutic drug used alone,[1],reduce the tumor volume
bleomycin,positive rate of senescence-associated β-galactosidase (SA-β-Gal) staining,PSC27 [4],significant increase
same,BrdU incorporation rate,PSC27 [5]; vs control cells,greatly reduced
same,DNA damage repair foci (DDR foci),PSC27 [5]; γH2AX staining,significantly increased
same,effect on tumor volume of chemotherapeutic drug combined with SAE,[1],roughly repeat the significant effect
salvianolic acid J [SAJ],effect on tumors when combined with MIT,[1],no significant effects

# Reference: patent US20250295619A1, “Use of Salvianolic Acid E in the Preparation of Drugs Targeting Senescent Cells, Inhibiting Tumors or Extending Lifespan” (Shanghai Institute of Nutrition and Health, Chinese Academy …, priority 2024, published 2025)
